{"source": "patent US7410767B1", "about": "“HLA-E binding” (Isis Innovation Limited, priority 1997, dated 2008)", "biological_target": "HLA-E (Homo sapiens, UniProt P13747, G128R)", "test": "in vitro peptide binding assay to HLA-E", "from_the_text": "Whatever form of HLA-E is used, a suitable peptide for binding in the HLA-E peptide groove will be required. […] Other peptides which bind to HLA-E may be used, for example peptides from viral proteins which may be the same as or different to MHC class I leader sequence peptides. […] A suitable assay for identifying synthetic peptides which bind to HLA-E is described in Braud et al 1997 Eur. J. Immunol. 27:1164-1169.", "key": {"[1]": {"details": "in vitro peptide binding assay, ratio of optical densities, read-out: Concentration of peptide required to obtain 50% of binding to HLA-E"}}, "note": "Like-named read-outs stand apart in the source and are kept apart here. No end group written: not given here."}
{"compound": "CSCC[C@H](NC(=O)[C@@H](N)C(C)C)C(=O)N[C@@H](C)C(=O)N1CCC[C@H]1C(=O)N[C@@H](CCCNC(=N)N)C(=O)N[C@H](C(=O)N[C@@H](CC(C)C)C(=O)N[C@@H](CC(C)C)C(=O)N[C@@H](CC(C)C)C(=O)O)[C@@H](C)O", "values": [{"measurement": "EC50", "value": 300, "unit": "nM"}]}
{"compound": "CSCC[C@H](NC(=O)[C@@H](N)C(C)C)C(=O)N[C@@H](C)C(=O)N1CCC[C@H]1C(=O)N[C@@H](CCCNC(=N)N)C(=O)N[C@H](C(=O)N[C@@H](CC(C)C)C(=O)N[C@H](C(=O)N[C@@H](CC(C)C)C(=O)O)C(C)C)[C@@H](C)O", "values": [{"measurement": "EC50", "setting": "[1]", "value": 60, "unit": "nM"}]}
{"compound": "CSCC[C@H](NC(=O)[C@@H](N)C(C)C)C(=O)N[C@@H](C)C(=O)N1CCC[C@H]1C(=O)N[C@@H](CCCNC(=N)N)C(=O)N[C@H](C(=O)N[C@H](C(=O)N[C@@H](CC(C)C)C(=O)N[C@@H](CC(C)C)C(=O)O)C(C)C)[C@@H](C)O", "values": [{"measurement": "EC50", "setting": "[1]", "value": 60, "unit": "nM"}]}
{"compound": "CC(C)C[C@H](NC(=O)[C@H](CC(C)C)NC(=O)[C@@H](NC(=O)[C@@H](NC(=O)[C@H](CCCNC(=N)N)NC(=O)[C@@H]1CCCN1C(=O)[C@H](C)NC(=O)[C@@H](NC(=O)[C@@H](N)C(C)C)[C@@H](C)O)[C@@H](C)O)C(C)C)C(=O)O", "values": [{"measurement": "EC50", "setting": "[1]", "value": "> 100000", "unit": "nM"}]}
{"compound": "VTAPRTLLL", "values": [{"measurement": "EC50", "setting": "[1]", "value": "> 100000", "unit": "nM"}]}
